The nature of assay [1]: Antiproliferative activity against human H460 cells assessed as reduction in cell number after 72 hrs by cell counter analysis. The assay is classed as functional, cell-based. The conditions noted are these: NCI-H460, 72 h.
Assay [2] deals with HT-29. Kind of assay: Antiproliferative activity against human HT-29 cells assessed as reduction in cell number after 72 hrs by cell counter analysis. The assay is classed as functional, cell-based. The conditions noted are these: HT-29, 72 h.
For assay [3], the target named is Histone deacetylase. Description: Inhibition of HDAC in human HeLa cells using BOC-Ac-Lys-AMC as substrate incubated for 4 hrs by fluorescence assay. The assay is classed as cell-based.
In a further assay the test system is LoVo. Description: Antiproliferative activity against human LoVo cells assessed as reduction in cell number after 72 hrs by cell counter analysis. The assay is classed as functional, cell-based.
Assay [4] concerns the target Histone deacetylase. Description: Inhibition of HDAC in human HeLa nuclear extract using BOC-Ac-Lys-AMC as substrate incubated for 90 mins by fluorescence assay. The assay is classed as protein assay.
Assay [5] is described as follows: Antiproliferative activity human HCT116 cells assessed as reduction in cell number after 72 hrs by cell counter analysis. The assay is classed as functional, cell-based. The conditions noted are these: HCT-116, 72 h.
A further assay addresses Histone deacetylase 2 (Homo sapiens, UniProt Q92769). Description: Inhibition of human recombinant HDAC2 using Fluor de Lys Green as substrate incubated for 30 mins by fluorescence assay.
Assay [6] in a line: Antiproliferative activity against human IGROV1 cells assessed as reduction in cell number after 72 hrs by cell counter analysis. The assay is classed as functional, cell-based. The conditions noted are these: IGROV-1, 72 h.
A further assay is described as follows: animal or person. The assay is classed as functional. The conditions noted are these: Homo sapiens, HCT-116, po, read-out: TGI.
Assay [7] deals with IGROV-1. Kind of assay: Induction of apoptosis in human IGROV1 cells at 0.3 uM after 72 hrs by TUNEL assay (reference value: 3%). The assay is classed as functional.
A short description of assay [8]: Cell cycle arrest in human IGROV1 cells assessed as accumulation at G1 phase at 0.3 to 1 uM after 72 hrs by propidium iodide staining based flow cytometry. The assay is classed as functional. The conditions noted are these: IGROV-1. (A flow cytometer gives signals particle by particle.)
Assay [9] deals with HT-29. Description: Antiproliferative activity against mitoxantrone resistant human HT-29 cells assessed as reduction in cell number after 72 hrs by cell counter analysis. The assay is classed as functional, cell-based. Conditions: HT-29, 72 h.
The subject of assay [10] is IGROV-1. Description: Induction of apoptosis in human IGROV1 cells at 1 uM after 72 hrs by TUNEL assay (reference value: 3%). The assay is classed as functional.
A short description of assay [11]: Antiproliferative activity against human LoVo/DX cells assessed as reduction in cell number after 72 hrs by cell counter analysis. The assay is classed as functional, cell-based.

Our source for the IC50, inhibition in vivo and Activity values is ChEMBL document CHEMBL3792283, “Biphenyl-4-yl-acrylohydroxamic acids: Identification of a novel indolyl-substituted HDAC inhibitor with antitumor activity” (Eur J Med Chem, 2016).

Calls of active or inactive are those of the source. The calls are words filed in the database; no cut-off is given here.

Sequence of Histone deacetylase 2 (Q92769 whole entry): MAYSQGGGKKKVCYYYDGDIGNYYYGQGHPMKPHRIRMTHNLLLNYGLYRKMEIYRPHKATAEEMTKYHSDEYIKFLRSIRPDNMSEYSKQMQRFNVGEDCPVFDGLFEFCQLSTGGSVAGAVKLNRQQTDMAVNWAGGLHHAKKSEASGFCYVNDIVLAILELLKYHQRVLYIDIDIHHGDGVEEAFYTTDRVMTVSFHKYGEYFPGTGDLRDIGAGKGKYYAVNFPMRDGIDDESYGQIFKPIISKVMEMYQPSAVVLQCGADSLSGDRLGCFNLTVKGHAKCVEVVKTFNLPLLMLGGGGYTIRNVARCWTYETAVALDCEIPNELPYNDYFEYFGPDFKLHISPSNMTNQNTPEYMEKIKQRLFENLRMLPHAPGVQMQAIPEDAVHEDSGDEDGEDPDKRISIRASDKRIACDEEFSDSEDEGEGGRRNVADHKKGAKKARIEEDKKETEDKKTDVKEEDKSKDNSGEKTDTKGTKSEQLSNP
Description for animal or person: Antitumor activity against human HCT116 cells xenografted in athymic Swiss nude mouse assessed as tumor growth inhibition at 175 mg/kg, po for 5 days a week for 4 weeks relative to control

As usually defined, the IC50 is the concentration that inhibits the measured activity by half. As to `CC(C)=C(c1ccccc1)c1ccc(/C=C/C(=O)NO)cc1`, the 50% inhibitory concentration (IC50) was 5500 nM in assay [1]; 4120 nM in the assay with HT-29 [2]; 2500 nM against Histone deacetylase [3]; 2790 nM with LoVo; 2600 nM against Histone deacetylase [4]; 2000 nM in [5]. For the same molecule, the IC50 came to 11800 nM at Histone deacetylase 2 and 2500 nM in assay [6].
Take `O=C(CCCCCCC(=O)Nc1ccccc1)NO` [VORINOSTAT]: the IC50 in [5] came out at 310 nM; in assay [6], 2200 nM.
With `Cc1[nH]c2ccccc2c1/C=C/c1ccccc1-c1ccc(/C=C/C(=O)NO)cc1`, the concentration for half-maximal inhibition (IC50) was determined as 1410 nM in [1]; 1370 nM in the assay with HT-29 [2]; 2440 nM in the assay on HT-29 [9]; 6570 nM with LoVo; 270 nM in assay [5]; 350 nM in assay [6]. Moreover, the IC50 in [11] was 4620 nM. For the same molecule, the inhibition in vivo at 175 mg/kg in “animal or person” was 68%. Also, the Activity with IGROV-1 [7] came to 34%; in the assay with IGROV-1 [10] it was 79%. Also, the outcome in [8] was Active.
As to `COc1ccc(-c2ccc(/C=C/C(=O)NO)cc2)cc1`, the IC50 in assay [1] was 3700 nM; in the assay with HT-29 [2] it was 1580 nM; with HT-29 [9], 1730 nM; in [5] it was 260 nM; in assay [6] it was 750 nM.
